Measured values reported in patent US8697839B2, “GQ protein competitive inhibitory polypeptides, preparation methods and uses thereof” (Third Military Medical University, priority 2008, dated 2014).

Assays:
[1] = system: cultured cardiocytes of the rats (hypertrophy induced by NE); test: protein content in rat cardiocyte hypertrophy induced by norepinephrine (Lowry method); assay type: cell-based, Wistar rats; conditions: for Protein content: 24 h, n = 6, x ± s; for effect on protein content in the hypertrophic cardiocyte induced by NE: polypeptide at 10 nmol/L
Text: 1. Wistar rats 1-3 day postpartum (purchased from Center for Experimental Animal, Third Military Medical University) was used, sacrificed by cervical dislocation, and fixed on a dissecting table. The ventral skin of the corpus was disinfected with 2% iodine tincture and then 75% ethanol. The heart was removed, cutted into pieces of about 1-3 mm^3, digested repeatedly with a digestion solution containing 0.08% trypase, 0.02% EDTA, and 0.05% collogen. The cells were collected in DMEM containing 10% fetal bovine serum and cultured in an incubator at 37° C., 5% CO2.
2. The cardiocytes cultured for 48 h were subjected to replacement of the DMEM with a serum-free DMEM culture media and further cultured for 24 h before addition of a drug according to the following groups: • Normal control group; 10 μl of PBS was added. • Norepinephrine group; norepinephrine (NE, Serva Corporation, USA) was added at 1 μmol/L. • Polypeptide-dosed group: NE was added, while the corresponding polypeptide drug was added at 10 nmol/L.
3. After addition of the drug, the cells were further cultured for 24 h and then the culture media was discarded. The culture was washed with PBS, followed by adding 0.5 ml of 5% trichloracetic acid per well, and left at 4° C. for 1 h. The precipitate was dissolved in 1 ml of 0.1 mol/L NaOH. The protein content was determined by Lowry method.

[2] = system: myocardial hypertrophy in mice induced by norepinephrine; test: myocardial hypertrophy in mice induced by norepinephrine; assay type: in vivo; conditions: NE model group: equivalent to 1.5 mg/kg NE ip bid 15 days, alone; x ± s
Description: Fifty of the mice used in the experiment (purchased from Center for Experimental Animals, Third Military Medical University) was assigned into five groups with 10 mice per group. The mice in the control group were administrated with 0.1% ascorbic acid-3 mg % potassium sodium tartrate-physiological saline, The mice in the model group were administrated with 0.1% ascorbic acid-6 mg % norepinephrine bitartrate-physiological saline (equivalent to 1.5 mg/kg NE); The mice in three dosing groups were administrated with the pentadecapeptide, the heptacosapeptide, and the pantapentacontapeptide at 30 μg/kg respectively, while administration of 0.1% ascorbic acid—6 mg % norepinephrine bitartrate—physiological saline. The administration was performed consecutively by intraperitoneal injection (ip), twice a day (bid), for 15 days. The dosing volumes for each group were 50 ml/kg. Then, the animals were sacrificed by cervical dislocation. The heart was removed by thoracotomy, washed with the chilled physiological saline to get rid of blood stain, blotted with filter paper, weighed on a scale. The atriums and the right ventricle were carefully removed (with the interventricular septum left), and the left ventricle was weighed.

[3] = system: myocardial hypertrophy in rats induced by norepinephrine; test: myocardial hypertrophy in rats induced by norepinephrine; assay type: in vivo, Wistar rats; conditions: NE model group: 6 mg % norepinephrine bitartrate, 33 ml/kg ip bid 20 days, alone; n = 6, x ± s
Description: Thirty of Wistar rats were selected and assigned into five groups with 6 rats per group. The rats in the control group were administrated with 0.1% ascorbic acid-3 mg % potassium sodium tartrate-physiological saline; the rats in the model group were administrated with 0.1% ascorbic acid-6 mg % norepinephrine bitartrate-physiological saline; the rats in the three dosing groups were administrated with the pentadecapeptide, the heptacosapeptide, and the pantapentacontapeptide at 15 μg/kg respectively, while administration of norepinephrine. The dosing volume for each group was 33 ml/kg, and the administration was performed consecutively by ip, bid, for 20 days. At that time, the heart and left ventricle were weighed.

[4] = system: hypertrophic cardiocyte induced by angiotensin II; test: protein content in rat cardiocyte hypertrophy induced by angiotensin II (Lowry method); assay type: cell-based; conditions: for Protein content: 24 h, n = 6, x ± s
Description: 1. The cardiocytes were cultured for 48 h in the same way as described above, then subjected to replacement of the DMEM with a serum-free DMEM culture media, and further cultured for 24 h before addition of a drug according to the following groups: normal control group: 10 μl of PBS was added; Ang II group; Ang II was added at 1 μmol/L; serial polypeptide-dosed group: Ang II was added, while each of the dodecapeptide, pentadecapeptide, heptacosapeptide, pantapentacontapeptide was added at 10 nmol/L.
2. After addition of the drug, the cells were further cultured for 24 h and then the culture media was discarded. The culture was washed with PBS, followed by adding 0.5 ml of 5% trichloracetic acid per well, and left at 4° C. for 1 h. The precipitate was dissolved in 1 ml of 0.1 mol/L NaOH. The protein content was determined by Lowry method.

[5] = polypeptide 10 nmol/L together with NE 1 μmol/L

NC[C@H](O)c1ccc(O)c(O)c1 [NE, norepinephrine, reference compound]
Protein content ([1]; NE group: NE 1000 nmol/L alone): 121.0 ± 13.2 μg/10^5 cells
HI (heart index) [2]: 4.82 ± 0.44 mg/g
HW (heart weight) [2]: 112.1 ± 12.1 mg
LVI (left ventricular index or myocardial hypertrophy index) [2]: 3.69 ± 0.36 mg/g
LVW (left ventricular weight) [2]: 85.6 ± 9.16 mg
HI (heart index) [3]: 3.674 ± 0.348 g/kg
HW (heart weight) [3]: 0.690 ± 0.078 g
LVI (left ventricular index or myocardial hypertrophy index) [3]: 2.954 ± 0.225 g/kg
LVW (left ventricular weight) [3]: 0.555 ± 0.055 g

Dodecapeptide: SEQ ID NO: 10, obtained by deleting amino acid residues 1 to 43 at the N-terminal of SEQ ID NO: 1 (ILQLNLKEYNLV; listed as Homo sapiens)
Protein content [1, 5]: 113.3 ± 11.6 μg/10^5 cells
effect on protein content in the hypertrophic cardiocyte induced by NE [1]: no manifest effect
effect on protein content in the cardiocyte in comparison with Ang II ([4]; polypeptide 10 nmol/L + Ang II): no manifest effect
Protein content ([4]; polypeptide 10 nmol/L together with Ang II 1 μmol/L): 144.0 ± 11.7 μg/10^5 cells

angiotensin II (DRVYIHPF; Angiotensin-2; UniProt P01019 25-32, looked up) [Ang II, inducer of cardiocyte hypertrophy, reference compound]
protein content in the cardiocyte ([4]; Ang II added alone, vs 113.9±7.48 normal control, p<0.01): 143.2 ± 5.49 µg
Protein content ([4]; Ang II group: Ang II 1000 nmol/L alone): 143.2 ± 5.49 μg/10^5 cells

Heptadecapeptide: SEQ ID NO: 8, obtained by deleting amino acid residues 1 to 38 at the N-terminal of SEQ ID NO: 1 (AVKDTILQLNLKEYNLV; listed as Homo sapiens)
Protein content [1, 5]: 96.4 ± 10.5 μg/10^5 cells
effect on protein content in the hypertrophic cardiocyte induced by NE [1]: significantly decrease

Dicosapeptide: SEQ ID NO: 7 (icosapeptide), obtained by deleting amino acid residues 1 to 35 at the N-terminal of SEQ ID NO: 1 (VFAAVKDTILQLNLKEYNLV; listed as Homo sapiens)
Protein content [1, 5]: 103.4 ± 11.4 μg/10^5 cells
effect on protein content in the hypertrophic cardiocyte induced by NE [1]: significantly decrease
